Assay results: US20250281380A1, “Skincare Formulation for Multi-Modal Reduction of Acetylcholine Concentration and Activity” (JAMRM, LLC, priority 2021, published 2025)

System: ACh release, MatTek FT full-thickness model of human skin (human epidermal keratinocytes and human dermal fibroblasts)
Assay: MatTek FT tissue model, ACh concentration in the tissue culture media
Format: cell-based
Description: The MatTek FT™ tissue model was used to determine whether treatment with the test formulation would impact ACh release in vitro. The MatTek FT™ tissue model is a three-dimensional, full-thickness model of human skin formed from cultured human epidermal keratinocytes and human dermal fibroblasts. […] The MatTek FT™ tissue model allows for the performance of preclinical studies to evaluate mechanisms of action for skincare products.
A first untreated tissue model served as a control sample and was maintained in a tissue culture media. A second tissue model was maintained in a tissue culture media and treated daily with the test formulation. A third tissue model was maintained in a tissue culture media and exposed to Neostigmine, an acetylcholinesterase inhibitor that prevents the breakdown of ACh in the tissue culture media. A fourth tissue model was maintained in a tissue culture media, treated daily with the test formulation, and exposed to Neostigmine. The amount of ACh created by each of the tissue models was determined by measuring the ACh concentration in the tissue culture media. The results can be seen in FIG. 1.

Compound: CN(C)C(=O)Oc1cccc([N+](C)(C)C)c1 [Neostigmine]
- accumulation of ACh (ACh concentration in tissue culture media) (FIG. 1, tissue model exposed to Neostigmine alone (third tissue model), time not stated): about 200 picograms per ml of solution
- ACh concentration at 72 hours, in words, effect of presence of neostigmine (FIG. 2, 72 hours, neostigmine in the untreated tissue model): relatively higher concentrations of ACh
